# Data: PMC12144510, “SIRT3 Functions as an Eraser of Histone H3K9 Lactylation to Modulate Transcription for Inhibiting the Progression of Esophageal Cancer” (Molecular & Cellular Proteomics : MCP, 2025)
# “Also recorded” adds a separate entry of the source.
# Legend:
# SIRT3 = tested on: SIRT3; parameters: method as in PMID 26120888; details: cited from earlier work
# ESCC cell = assay: Colony formation assay; assay type: cell-based, human
# Method: The cells (KYSE30 cells with SIRT3 KO and overexpression) to be observed were counted, and 1000 cells/well were inoculated into the 12-well plate culture plate, and the medium was changed every 3 days. About a week after cell culture, the cells were washed twice with PBS and fixed with 1 ml 4% paraformaldehyde for 10 min. The cells were stained with crystal violet solution for 5 to 10 min, and the excess crystal violet solution was washed away with PBS. The formation of cell clones was photographed. The results were analyzed by ImageJ software (v.ImageJ2).
# The cells were counted and 1000 cells were inoculated in 6-well plate plates, and the medium was changed every 3 days. After about 1 week of cell culture, the cells were washed twice with PBS and fixed with 1 ml 4% paraformaldehyde for 30 min. Dye crystal violet for 5 to 10 min and then the cells were washed with PBS. The formation of cell clones was photographed and analyzed using ImageJ software.
# H3K9la = H3K9la level in cells with SIRT3 inhibitor (Western blot); assay type: cell-based, human
# KYSE30 cells [1] = assay: Cell proliferation / viability (CCK-8); assay type: cell-based, human; details: ESCC cell (KYSE30), CCK-8, n = 8; supplemental Fig. S2G
# KYSE30 cells [2] = assay: Cell migration (wound healing assay); assay type: cell-based, human; details: n = 8, supplemental Fig. S2H
# Method: The wound healing assay involved seeding cells in 6-well plates. After the cells (KYSE30 cells with SIRT3 KO and overexpression) were fused, they were scraped off with the tip of the pipette, and the floating cells were washed away with PBS. Immediately afterward, the wounds were photographed. After culture in serum-free medium for 24 h, the wounds were photographed again.
# H3K9la in HEK 293T cells = assay: H3K9la level after sodium lactate stimulation; assay type: cell-based, human; details: 20 mM sodium lactate, 24 h, Figure S4B
# Method: Histone was isolated from HEK 293T cells by acid extraction. In short, HEK 293T cells were treated with 20 mM sodium lactate for 24 h and harvested by centrifugation. The harvested HEK 293T cells were resuspended with lysis buffers (10 mM Tris–HCl pH 8.0, 1 mM KCl, 1.5 mM MgCl2, 1 mM DTT, 2 mM PMSF, and Roche Complete EDTA free protease inhibitor) and incubated at 4 °C for 1 h. The intact nuclei were centrifuged at 2000g at 4 °C for 10 min to form pellets. To extract histones, 0.4 M H2SO4 was added to the suspension nucleus and then rotated overnight at 4 °C. After removal of nuclear debris by centrifugation at 10,000g at 4 °C for 10 min, histone was precipitated by adding 100% trichloroacetic acid (trichloroacetic acid final concentration 33%). The precipitated histones were incubated at 4 °C for 10 min and washed with acetone twice. The dried protein particles were dissolved with ddH2O. Subsequently, 4 ∼ 6 μg histone was incubated with 10 μM SIRT3 in 100 μl PBS supplemented by 5 mM NAD^+ at 37 °C for 5 h. The lactylation levels at histone were detected by Western blot.
compound,measurement,setting,value
c1cncc(-c2cn[nH]n2)c1 [3-TYP],SIRT3 inhibition selectivity,SIRT3,selective SIRT3 inhibitor
same,colony formation,ESCC cell,Increasing efficiencies of proliferation and colony formation
same,delactylation of SIRT3 with inhibitor,H3K9la; Figure S2F,decreasing delactylation
same,level of H3K9la in cells,"H3K9la; compared with dimethyl sulfoxide, supplemental Fig. S2F",increased H3K9la levels; also recorded: significantly increased
same,cell proliferation,KYSE30 cells [1],significantly increased; also recorded: Increasing efficiencies of proliferation
same,cell migration ability,KYSE30 cells [2],significantly increased
CC(O)C(=O)[O-].[Na+] (stereo not shown) [sodium lactate],H3K9la level,H3K9la in HEK 293T cells,increased
